What all share (type): functional
Holding throughout (parameters): scale not given: the % may be the effect or the level left

The subject of assay [1] is Plasmodium yoelii. Description: Antimalarial activity as reduced parasitemia at day 4 against multidrug-resistant Plasmodium yoelii in Swiss mice (Mus musculus) at 96 mg/kg Intramuscular dose.
Assay [2] concerns Plasmodium yoelii. The assay can be described thus: Antimalarial activity against multidrug-resistant Plasmodium yoelii in Swiss mice (Mus musculus) as reduced parasitaemia after 4 days at 96 mg/kg peroral dose. To be noted: route oral.
The test system of assay [3] is Plasmodium yoelii. Description: Antimalarial activity against multidrug-resistant Plasmodium yoelii in Swiss mice (Mus musculus) as reduced parasitaemia after peroral 48 mg/kg dose for 4 days. Conditions: route oral.

For the molecule `C=C(c1ccccc1)C1CCOC(C)(C)OO1` (stereo not given), the Activity came to 87.31% in assay [1] and 92.38% in assay [2].

For the molecule `C=C(c1cccc2ccccc12)C1CCOC(C)(C)OO1` (stereo not given), the Activity stood at 32.1% in assay [1] and 70.37% in assay [2].

For `C=C(c1ccc(Cl)cc1)C1CCOC2(CCC(O)CC2)OO1` (stereo not given), the results for the Activity in assay [1] and in assay [2] were 11.47% and 54.59%, respectively.

As to `C=C(c1ccccc1)C1CCOC2(CCCC2)OO1` (stereo not given), the Activity in assay [1] stood at 58.71%; in assay [2] it was 18.21%.

Consider `C=C(c1ccc(Cl)cc1)C1CCOC2(CCCC2)OO1` (stereo not given), for which the Activity turned out to be 6.17% in assay [1] and 27.16% in assay [2].

For the molecule `C=C(c1ccccc1)C1CCOC2(CCC(O)CC2)OO1` (stereo not given), the Activity turned out to be 21.39% in assay [1] and 53.59% in assay [2].

Take `C=C(c1cccc2ccccc12)C1CCOC2(CCCCC2)OO1` (stereo not given): the Activity in assay [1] worked out at 22.25%; in assay [2], 17.16%.

Consider `C=C(c1ccc(Cl)cc1)C1CCOC(C)(C)OO1` (stereo not given), for which the figures for the Activity in assay [1] and in assay [2] were 57.64% and 48.77%, respectively.

Take `C=C(c1ccc(-c2ccccc2)cc1)C1CCOC2(CCCCC2)OO1` (stereo not given): the figures for the Activity in assay [1] and in assay [2] were 24.69% and 91.36%, respectively.

With `C=C(c1ccc(-c2ccccc2)cc1)C1CCOC2(CCCC2)OO1` (stereo not given), the Activity in assay [1] was found to be 42.36%; in assay [2] it was 64.38%.

On to `C=C(c1ccc(Cl)cc1)C1CCOC2(CCCCC2)OO1` (stereo not given), for which the Activity in assay [1] was 46.91%; in assay [2], 24.69%.

In the case of `C=C(c1ccccc1)C1CCOC2(OO1)C1CC3CC(C1)CC2C3` (stereo not given), the values for the Activity in assay [1] and in assay [2] were 27.41% and 57.36%, respectively.

As for `C=C(c1ccc(Cl)cc1)C1CCOC2(OO1)C1CC3CC(C1)CC2C3` (stereo not given), the Activity in assay [1] turned out to be 12.18%; in assay [2], 58.38%.

Regarding `C=C(c1ccccc1)C1CCOC2(CCCCC2)OO1` (stereo not given), the results for the Activity in assay [1] and in assay [2] were 9.38% and 35.8%, respectively.

For `C=C(c1cccc2ccccc12)C1CCOC2(CCCC2)OO1` (stereo not given), the Activity in assay [1] is listed as 19.8%; in assay [2], 49.75%.

Consider `C=C(c1ccc(-c2ccccc2)cc1)C1CCOC2(CCC(O)CC2)OO1` (stereo not given), for which the Activity in assay [1] was 75.47%; in assay [2], 84.13%.

As to `C=C(c1cccc2ccccc12)C1CCOC2(OO1)C1CC3CC(C1)CC2C3` (stereo not given), the values for the Activity in assay [1] and in assay [2] were 11.11% and 38.27%, respectively.

Consider `C=C(c1ccccc1)C1CCOC2(CCC(=O)CC2)OO1` (stereo not given), for which the results for the Activity in assay [1] and in assay [2] were 36.6% and 72.02%, respectively.

In the case of `C=C(c1ccc(-c2ccccc2)cc1)C1CCOC(C)(C)OO1` (stereo not given), the Activity in assay [1] stood at 42.13%; in assay [2], 98.22%.

Take `C=C(c1ccc(-c2ccccc2)cc1)C1CCOC2(CCC(=O)CC2)OO1` (stereo not given): the Activity in assay [1] is 100%; in assay [2], 98.49%.

Take `C=C(c1ccc(-c2ccccc2)cc1)C1CCOC2(OO1)C1CC3CC(C1)CC2C3` (stereo not given): the figures for the Activity in assay [1] and in assay [2] were 31.98% and 44.78%, respectively.

In assay [3], `CCO[C@H]1O[C@@H]2O[C@@]3(C)CC[C@H]4[C@H](C)CC[C@@H]([C@H]1C)[C@@]24OO3` [ARTEMOTIL] showed an Activity of 100%.

`C=C(c1ccc(Cl)cc1)C1CCOC2(CCC(=O)CC2)OO1` (stereo not given): the Activity is given as 100% in assay [1] and 23.36% in assay [2].

The values are drawn from ChEMBL document CHEMBL1144005, “Orally active 1,2,4-trioxepanes: synthesis and antimalarial activity of a series of 7-arylvinyl-1,2,4-trioxepanes against multidrug-resistant Plasmodium yoelii in Swiss mice” (2008).
